Results on two compounds are retold here after patent US7935708B2, “Dihydropyrazolopyrimidinone derivatives” (MSD K.K., priority 2006, dated 2011).

The EC50 is the concentration at which the effect is half-maximal.

The structures appear in SMILES notation.

Assay [1] concerns Cdc2 (Cdk1) tyrosine 15 phosphorylation in NCI-H1299 cells. In words: Cdc2 (Cdk1) tyrosine 15-phosphorylation-inhibitory effect in camptothecin-treated NCI-H1299 cells (ELISA). In kind it is cell-based. Particulars: Homo sapiens, camptothecin 200 nM 16 hours, then test compound with nocodazole 8 hours, read-out: Cdc2-Y15 Phosphorylation-Inhibitory Effect (H1299, + camptothecin) (EC50). The source says:
Pharmaceutical Text 2 (Method of Determining Drug Potency in Cells (Cdc2 (Cdk1) Tyrosine 15-Phosphorylation-Inhibitory Effect))
Fetal bovine serum (FBS) was obtained from Morgate; media RPMI1640 and DMEM were from Invitrogen; camptothecin was from Sigma; gemcitabine was from Nippon Eli Lilly; nocodazole and protease inhibitor cocktail were from Sigma; rabbit anti-Cdc2 antibody and mouse anti-Cdc2 antibody were from Santa Cruz Biotechnology; rabbit anti-tyrosine 15-phosphorylated Cdc2 antibody and horseradish peroxidase-labeled anti-mouse IgG antibody were from Cell Signaling Technology; sure blue reserve TMB peroxidase substrate was from Kirkegaard and Perry Laboratories.
Human non-small cell lung cancer cells (NCI-H1299) and human colon cancer cells (WiDr) were obtained from American Type Culture Collection (ATCC).
(§1) c) Method of Effect Determination:
In the method of using NCI-H1299 cells, the cells were suspended in RPMI1640 containing 10% FBS, and the cell suspension was applied to a 96-well Nunclondelta-processed plastic plate (bought from Nunc), in an amount of 2000 cells/100 μL/well, in which the cells were incubated overnight in 5% CO2-95% air at 37° C. Camptothecin was dissolved in dimethylsulfoxide (DMSO), and diluted with RPMI1640 containing 10% FBS, and then this was applied to the plate on which the cells had been previously sowed, in an amount of 50 μL/well in such a manner that the final concentration of camptothecin could be 200 nM. Then, the cells were incubated for 16 hours at 37° C. in 5% CO2-95% air. The test compound was stepwise diluted with DMSO, then diluted with 4000 nM nocodazole-containing RPMI1640 containing 10% FBS, and applied to the plate on which the camptothecin-treated cells had been sowed, in an amount of 50 μL/well. The cells were incubated for 8 hours at 37° C. in 5% CO2-95% air, then the medium was removed, and a cytolytic buffer was added to the plate in an amount of 100 μL/well, shaken at 4° C. for 2 hours, then frozen at −80° C., and melted to give a cell solution. Cdc2 and tyrosine 15-phosphorylated Cdc2 in the cell solution were determined through enzyme-linked immunosorbent assay (ELISA), and the ratio of tyrosine 15-phosphorylated Cdc2 to Cdc2 was calculated to obtain the 50% phosphorylation-inhibitory concentration of the test compound to the cells (EC50, nM). The cytolytic buffer used herein is an aqueous solution containing 20 mM Hepes (pH 7.5), 150 mM sodium chloride, 1 mM disodium ethylenediaminetetraacetate, 0.1% polyoxyethylene (10) octylphenyl ether, 1% protease inhibitor cocktail, 1 mM dithiothreitol, 2 mM sodium orthovanadate, 10 mM sodium fluoride and 10 mM glycerol diphosphate. Cdc2 was determined through ELISA as follows: A rabbit anti-Cdc2 antibody solution, which had been diluted 200-fold with 50 mM carbonate-bicarbonate buffer (pH 9.6), was applied to a 96-well maxisorpimmuno plate (bought from Nunc), in an amount of 50 μL/well, and statically kept overnight at 4° C. so as to fix the antibody on the plate. Next, this was washed three times with phosphate-buffered saline (PBS), and 5% bovine serum albumin-containing PBS (5% BSA/PBS) was added thereto in an amount of 300 μL/well, and statically kept at room temperature for 2 hours, and then again washed three times with PBS. A mouse anti-Cdc2 antibody solution that had been diluted 100-fold with 0.05% polyoxyethylene sorbitan monolaurate and 1% BSA-containing Tris-HCl-buffered saline (1% BSA/TBS-T) was added to it in an amount of 50 μL/well, and the cell solution was added thereto in an amount of 5 μL/well and statically kept overnight at 4° C. Next, this was washed three times with 0.05% polyoxyethylene sorbitan monolaurate and 0.1% BSA-containing Tris-HCl-buffered saline (0.1% BSA/TBS-T), and then a horseradish peroxidase-labeled anti-mouse IgG antibody solution that had been diluted 2000-fold with 1% BSA/TBS-T was added thereto in an amount of 70 μL/well, and statically kept at room temperature for 3 hours. […]
On the technique in general: ELISA stands for enzyme-linked immunosorbent assay.

The subject of assay [2] is Human colon cancer cells (WiDr). Put plainly: Checkpoint escape effect in gemcitabine-treated WiDr cells (phosphorylated histone H3-positive cells). The class given is cell-based. To be noted: gemcitabine 100 nM 24 hours, then test compound with nocodazole 8 hours.
From the text: Pharmaceutical Text 3 (Method of Determining Drug Potency in Cells (Checkpoint-Removing Effect))
Fetal bovine serum (FBS) was obtained from Morgate; DMEM was from Invitrogen; gemcitabine was from Nippon Eli Lilly; nocodazole and 4′,6-diamidino-2-phenylindole were from Sigma; rabbit anti-phosphorylated histone H3 antibody was from Upstate; and fluorescence-labeled (Alexa Fluor 488) anti-rabbit IgG antibody was from Molecular Probe.
Human colon cancer cells (WiDr) were obtained from American Type Culture Collection (ATCC).
as §1
The cells were suspended in DMEM containing 10% FBS, and the cell suspension was applied to a poly-D-lysine-coated 96-well plastic plate (bought from Becton Dickinson) in an amount of 2000 cells/100 μL/well, in which the cells were incubated overnight in 5% CO2-95% air at 37° C. Gemcitabine was dissolved in phosphate-buffered saline (PBS), and diluted with DMEM containing 10% FBS, and then this was applied to the plate on which the cells had been previously sowed, in an amount of 50 μL/well in such a manner that the final concentration of gemcitabine could be 100 nM. Then, the cells were incubated for 24 hours at 37° C. in 5% CO2-95% air. The test compound was stepwise diluted with dimethylsulfoxide, then diluted with 1200 nM nocodazole-containing DMEM containing 10% FBS, and applied to the plate on which the gemcitabine-treated cells had been sowed, in an amount of 50 μL/well. […] Next, this was washed with PBS, and a solution containing 4′,6-diamidino-2-phenylindole that had been diluted with 1% BSA/PBS to have a concentration 10 μg/mL and a fluorescence-labeled (Alexa Fluor 488) anti-rabbit IgG antibody that had been diluted 250-fold was added to it in an amount 50 μL/well, and reacted in a dark place at room temperature for 60 minutes. Finally, this was washed with PBS, and its fluorescence intensity was determined to calculate the ratio of the phosphorylated histone H3-positive cells (cells that had been in a cell division cycle through removal of checkpoint). […]

Assay [3] has as its system Human colon cancer cells WiDr. In words: Tumor growth-inhibitory effect, WiDr implanted subcutaneously in nude rats. In kind it is in vivo, F344/N Jcl-mu nude rats. Particulars: statement on Table 5. The protocol:
Pharmaceutical Test 4 (Tumor Growth-Inhibitory Effect)
Human colon cancer cells WiDr (gotten from ATCC) were implanted into the subcutaneous area of the back of F344/N Jcl-mu nude rats. Eight days after the implantation, gemcitabine (50 mg/kg, Gemzar injection, Eli-Lilly) was intravenously administered to them; and after 24 hours, a test compound was dissolved in a solvent (5% glucose) and given to them through continuous intravenous injection for 8 hours. The tumor volume (0.5×(major diameter)×(minor diameter)^2) was determined on day 0, 3, 6, 10 and 13. Day 0 means the day on which gemcitabine was administered. The relative tumor volume is a relative value, as calculated on the basis of the tumor volume of 1 on day 0. The tumor growth percentage (% T/C) was obtained according to the following formula:
When the tumor volume change from day 0 in the group subjected to test compound administration is more than 0 (>0): % T/C=[(tumor volume change in the test compounds on day 3, 6, 10, 13)/(tumor volume change in the control on day 3, 6, 10, 13)]×100. When the tumor volume change from day 0 in the group subjected to test compound administration is less than 0 (<0): % T/C=[(tumor volume change in the test compounds on day 3, 6, 10, 13)/(tumor volume […])]×100.

On to `CC(C)n1c(=O)c2cnc(Nc3ccc(C4CCN(C)CC4)cc3)nc2n1-c1cccc(C(C)(C)O)n1` [Example 147, 1-[6-(1-hydroxy-1-methylethyl)pyridin-2-yl]-2-isopropyl-6-{[4-(1-methylpiperidin-4-yl)phenyl]amino}-1,2-dihydro-3H-pyrazolo[3,4-d]pyrimidin-3-one], for which the results for the EC50 in assay [1] and in assay [2] were 100 nM and 110 nM, respectively.
On to `Nc1ccn([C@@H]2O[C@H](CO)[C@@H](O)C2(F)F)c(=O)n1` [Gemcitabine, gemcitabine], for which, in assay [3], the “tumor growth percentage (in words)” value is “reduced the tumor growth percentage”.
